In PubChem BioAssay (NCI):
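Five compound concentrations were applied to cells in 96-well plates for 48 hours; endpoints were derived by simple linear interpolation of the resulting dose-response curve. GI50 is the concentration that inhibits growth by half. TGI: concentration producing complete growth inhibition.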

How the values were obtained:
Experiment in all cases: growth of human tumour cells (NCI), 48 h
PC-3 prostate = system: PC-3 prostate
OVCAR-3 ovarian = system: OVCAR-3 ovarian
OVCAR-8 ovarian = system: OVCAR-8 ovarian
HL-60(TB) leukemia = system: HL-60(TB) leukemia
MCF7 breast = system: MCF7 breast
OVCAR-4 ovarian = system: OVCAR-4 ovarian
SR leukemia = system: SR leukemia
HCC-2998 colon = system: HCC-2998 colon
M14 melanoma = system: M14 melanoma
BT-549 breast = system: BT-549 breast
COLO 205 colon = system: COLO 205 colon
SNB-75 CNS = system: SNB-75 CNS
OVCAR-5 ovarian = system: OVCAR-5 ovarian
UO-31 renal = system: UO-31 renal
SK-MEL-28 melanoma = system: SK-MEL-28 melanoma
HOP-92 NSCLC = system: HOP-92 NSCLC
A549 NSCLC = system: A549 NSCLC
HS 578T breast = system: HS 578T breast
K-562 leukemia = system: K-562 leukemia
UACC-257 melanoma = system: UACC-257 melanoma
CAKI-1 renal = system: CAKI-1 renal
NCI-H460 lung = system: NCI-H460 lung
HOP-62 NSCLC = system: HOP-62 NSCLC
SK-OV-3 ovarian = system: SK-OV-3 ovarian
NCI-H226 lung = system: NCI-H226 lung
CCRF-CEM leukemia = system: CCRF-CEM leukemia
TK-10 renal = system: TK-10 renal
SN12C renal = system: SN12C renal
HCT-116 colon = system: HCT-116 colon
UACC-62 melanoma = system: UACC-62 melanoma
KM12 colon = system: KM12 colon
SW-620 colon = system: SW-620 colon
DU-145 prostate = system: DU-145 prostate
SK-MEL-5 melanoma = system: SK-MEL-5 melanoma
IGROV1 ovarian = system: IGROV1 ovarian
SNB-19 CNS = system: SNB-19 CNS
NCI/ADR-RES ovarian = system: NCI/ADR-RES ovarian
MDA-MB-435 = system: MDA-MB-435
SF-268 CNS = system: SF-268 CNS
MALME-3M melanoma = system: MALME-3M melanoma
MDA-MB-231 breast = system: MDA-MB-231 breast
A498 renal = system: A498 renal
MOLT-4 leukemia = system: MOLT-4 leukemia
NCI-H522 lung = system: NCI-H522 lung
RPMI-8226 leukemia = system: RPMI-8226 leukemia
LOX IMVI melanoma = system: LOX IMVI melanoma
SF-295 CNS = system: SF-295 CNS
EKVX NSCLC = system: EKVX NSCLC
T-47D breast = system: T-47D breast
HCT-15 colon = system: HCT-15 colon
SK-MEL-2 melanoma = system: SK-MEL-2 melanoma
U251 CNS = system: U251 CNS
SF-539 CNS = system: SF-539 CNS
786-0 renal = system: 786-0 renal
HT29 colon = system: HT29 colon
RXF 393 renal = system: RXF 393 renal
ACHN renal = system: ACHN renal

Compound `CNC(=O)c1cc(-c2ccc(NC(=O)Nc3ccc(N4CCN(C)CC4)c(C(F)(F)F)c3)cc2)nc2cccnc12` has a GI50 (PC-3 prostate) of 15.1 µM, a TGI (PC-3 prostate) of 30.1 µM and a GI50 (OVCAR-3 ovarian) of 9.59 µM. It also gave a TGI (OVCAR-3 ovarian) of 25.8 µM, a GI50 (OVCAR-8 ovarian) of 17.4 µM and a TGI (OVCAR-8 ovarian) of 35.4 µM. The GI50 (HL-60(TB) leukemia) was 16.1 µM, the TGI (HL-60(TB) leukemia) was 38.7 µM and the GI50 (MCF7 breast) was 1670 nM. The TGI (MCF7 breast) was 3.45 µM, the GI50 (OVCAR-4 ovarian) was 15.7 µM and the TGI (OVCAR-4 ovarian) was 31.6 µM. The GI50 (SR leukemia) was 9.97 µM, the TGI (SR leukemia) was 44.6 µM and the GI50 (HCC-2998 colon) was 18 µM. It also gave a TGI (HCC-2998 colon) of 34.6 µM, a GI50 (M14 melanoma) of 1790 nM and a TGI (M14 melanoma) of 3.71 µM. The GI50 (BT-549 breast) was 16.5 µM, the TGI (BT-549 breast) was 35.3 µM and the GI50 (COLO 205 colon) was 16.8 µM. For the same compound, the TGI (COLO 205 colon) was 32.8 µM, the GI50 (SNB-75 CNS) was 14.9 µM and the TGI (SNB-75 CNS) was 28.4 µM. It also gave a GI50 (OVCAR-5 ovarian) of 15.6 µM, a TGI (OVCAR-5 ovarian) of 29 µM and a GI50 (UO-31 renal) of 15.3 µM. It also gave a TGI (UO-31 renal) of 29.2 µM, a GI50 (SK-MEL-28 melanoma) of 1670 nM and a TGI (SK-MEL-28 melanoma) of 3.11 µM. The GI50 (HOP-92 NSCLC) was 6.54 µM, the TGI (HOP-92 NSCLC) was greater than 100 µM and the GI50 (A549 NSCLC) was 10.9 µM. It also gave a TGI (A549 NSCLC) of 24.3 µM, a GI50 (HS 578T breast) of 15 µM and a TGI (HS 578T breast) of 38.9 µM. It also gave a GI50 (K-562 leukemia) of 2120 nM, a TGI (K-562 leukemia) of 5.35 µM and a GI50 (UACC-257 melanoma) of 15.3 µM. It also gave a TGI (UACC-257 melanoma) of 28.8 µM, a GI50 (CAKI-1 renal) of 16.1 µM and a TGI (CAKI-1 renal) of 29.6 µM. It also gave a GI50 (NCI-H460 lung) of 3.19 µM, a TGI (NCI-H460 lung) of 10.2 µM and a GI50 (HOP-62 NSCLC) of 16.4 µM. The TGI (HOP-62 NSCLC) was 32.2 µM, the GI50 (SK-OV-3 ovarian) was 18.5 µM and the TGI (SK-OV-3 ovarian) was 34.7 µM. For the same compound, the GI50 (NCI-H226 lung) was 18 µM, the TGI (NCI-H226 lung) was 39.7 µM and the GI50 (CCRF-CEM leukemia) was 3.16 µM. For the same compound, the TGI (CCRF-CEM leukemia) was 74.2 µM, the GI50 (TK-10 renal) was 18.5 µM and the TGI (TK-10 renal) was 33.3 µM. For the same compound, the GI50 (SN12C renal) was 16.7 µM, the TGI (SN12C renal) was 34.7 µM and the GI50 (HCT-116 colon) was 4.09 µM. The TGI (HCT-116 colon) was 75.6 µM, the GI50 (UACC-62 melanoma) was 18.4 µM and the TGI (UACC-62 melanoma) was 33.9 µM. For the same compound, the GI50 (KM12 colon) was 17.4 µM, the TGI (KM12 colon) was 43.3 µM and the GI50 (SW-620 colon) was 2110 nM. The TGI (SW-620 colon) was 4.62 µM, the GI50 (DU-145 prostate) was 17.6 µM and the TGI (DU-145 prostate) was 35.6 µM. It also gave a GI50 (SK-MEL-5 melanoma) of 17.5 µM, a TGI (SK-MEL-5 melanoma) of 31.7 µM and a GI50 (IGROV1 ovarian) of 17.7 µM. For the same compound, the TGI (IGROV1 ovarian) was 36.6 µM, the GI50 (SNB-19 CNS) was 16.9 µM and the TGI (SNB-19 CNS) was 33.2 µM. It also gave a GI50 (NCI/ADR-RES ovarian) of 14.2 µM, a TGI (NCI/ADR-RES ovarian) of 45.4 µM and a GI50 (MDA-MB-435) of 1750 nM. For the same compound, the TGI (MDA-MB-435) was 3.27 µM, the GI50 (SF-268 CNS) was 17.5 µM and the TGI (SF-268 CNS) was 39.2 µM. The GI50 (MALME-3M melanoma) was 1680 nM, the TGI (MALME-3M melanoma) was 3.21 µM and the GI50 (MDA-MB-231 breast) was 17.5 µM. For the same compound, the TGI (MDA-MB-231 breast) was 38.1 µM, the GI50 (A498 renal) was greater than 100 µM and the TGI (A498 renal) was greater than 100 µM. For the same compound, the GI50 (MOLT-4 leukemia) was 2790 nM, the TGI (MOLT-4 leukemia) was 14.9 µM and the GI50 (NCI-H522 lung) was 16.5 µM. The TGI (NCI-H522 lung) was 31.1 µM, the GI50 (RPMI-8226 leukemia) was 3.85 µM and the TGI (RPMI-8226 leukemia) was 25 µM. The GI50 (LOX IMVI melanoma) was 656 nM, the TGI (LOX IMVI melanoma) was 24.5 µM and the GI50 (SF-295 CNS) was 18 µM. The TGI (SF-295 CNS) was 36.9 µM, the GI50 (EKVX NSCLC) was 17.9 µM and the TGI (EKVX NSCLC) was 33.9 µM. The GI50 (T-47D breast) was 17 µM, the TGI (T-47D breast) was 43.4 µM and the GI50 (HCT-15 colon) was 2070 nM. For the same compound, the TGI (HCT-15 colon) was 4.33 µM, the GI50 (SK-MEL-2 melanoma) was greater than 100 µM and the TGI (SK-MEL-2 melanoma) was greater than 100 µM. It also gave a GI50 (U251 CNS) of 3.43 µM, a TGI (U251 CNS) of 14.7 µM and a GI50 (SF-539 CNS) of 13.6 µM. It also gave a TGI (SF-539 CNS) of 26.5 µM, a GI50 (786-0 renal) of 1810 nM and a TGI (786-0 renal) of 3.52 µM. It also gave a GI50 (HT29 colon) of 1920 nM, a TGI (HT29 colon) of 4.19 µM and a GI50 (RXF 393 renal) of 3.38 µM. It also gave a TGI (RXF 393 renal) of 15 µM, a GI50 (ACHN renal) of 15.5 µM and a TGI (ACHN renal) of 28.9 µM.
